Legend:
mice = conditions: oral, anandamide 300 mgkg body weight−1, 2-arachidonoyl glycerol 400 mgkg body weight−1; cited from earlier work
animals = conditions: injected into animals; cited from earlier work
[1] = Effects of oral administration of cannabimimetic lipids on ambulation, rearing, immobility, analgesia, body temperature and fecal output (FIG. 3-5); assay type: in vivo; conditions: for immobility, difference from control group / rearing, difference from control group / body temperature, difference from control group: p<0.01-0.05, ANOVA, Newman-Keuls
male Rj:NMRI mice = assay: ELEVATED PLUS MAZE TEST, number of entries in the closed arms; assay type: in vivo; conditions: for Number of Entries in the Closed Arms, average entries: diets for 42 days, agent intraperitoneally 60 minutes before test
Method: In order to show the biological activity of the composition of the present invention on animal's behaviour the effect of dietary poly-unsaturated fatty acids with and without a CB-1 receptor antagonist on anxiolytic-like responses in mice were tested. To this end, the ELEVATED PLUS MAZE TEST was applied (adapted after Handley and Mithani (Naunyn. Schmied. Arch. Pharmacol. 327: 1-5, 1984).
For the experiments male Rj:NMRI mice, obtained from Elevage Janvier, Le Genest-Saint-Isle France and weighing 10-11 g at delivery and 33-51 grams on day 42 were used. The mice were housed 10 per cage in wire cages with bedding and normal light cycle. They received ad libitum quantities of bottled distilled water and purified powdered diets (7.5 g/mouse) in ceramic cups (10/group) for 42 days. The Food was maintained at −80° C. in daily aliquots under nitrogen, thawed each afternoon before administration to mice. Uneaten food was discarded daily.
The principle of the test resides in that anxiolytic agents increase the number of entries into the open and often the closed arms of the […], mice should want to move and explore the spaces of the open and closed arms rather than staying still in the middle).
Mice were given the following agents intraperitoneally 60 minutes before the Plus Maze test:
All diets contained 90% fat-free AIN93G rodent diet in powder form (Lot 9350-5, Dyets, Inc., Bethlehem, Pa.), 0.4% milk fat, 1.2% palm olein, 1.9% Trisun sunflower oil, 1.5% soybean oil and 2.1-5.1% medium chain triacylglycerol oil. Parts of the medium chain triacylglycerol oil were replaced with 1.1% algal oil (providing 0.5 dietary wt.-% arachidonic acid) in diet D, 1.9% fish oil (providing 0.5 dietary wt.-% docosahexaenoic acid) in diet E, and with 1.1% algal oil and 1.9% fish oil in diets F and G. Dietary groups are summarized in the table below:
The body weight, weight gain and the food intake of the mice was monitored throughout the experiment. […]

Row | Compound | bioactivity when taken orally (mice) | effects of pure doses when injected (animals) | immobility, difference from control group ([1]; oral administration) | rearing, difference from control group ([1]; oral administration) | body temperature, difference from control group [1] | Number of Entries in the Closed Arms, average entries (male Rj:NMRI mice) | Number of Entries in the Closed Arms, difference vs. group A (male Rj:NMRI mice; p-value = 0.19) | analgesia ([1]; oral administration)
1 | 2 arachidonylglycerol [Diet 2-AG] | have bioactivity | calming effects and effects on the immune system | significantly different | significantly different | significantly different |  |  | 
2 | Cc1c(C(=O)NN2CCCCC2)nn(-c2ccc(Cl)cc2Cl)c1-c1ccc(I)cc1 [C] |  |  |  |  |  | 2.3 | There was no significant difference (p-value = 0.19). | 
3 | CN1C(=O)CC(=O)N(c2ccccc2)c2cc(Cl)ccc21 [Clobazam] |  |  |  |  |  | 6.3 |  | 
4 | CCCCCc1cc(O)c2c(c1)OC(C)(C)[C@@H]1CCC(C)=C[C@@H]21 [THC, 9-tetrahydrocannabinol] |  |  | significantly different | significantly different | significantly different |  |  | significantly increased analgesia
5 | CCCCCCCC/C=C\CCCCCCCC(N)=O [oleamide] |  | calming effects and effects on the immune system | significantly different | significantly different | significantly different |  |  | 
6 | N-arachidonylethanolamine [anandamide] | have bioactivity | calming effects and effects on the immune system | significantly different | significantly different | significantly different |  |  | 

From patent publication US8323680B1, “Nutritional composition” (Nestec S.A., priority 1999, dated 2012)
